From patent publication US8853261B2, “Nutraceutical composition from Garcinia mangostana” (Laila Nutraceuticals, priority 2008, dated 2014)
Values joined by “and” are separate entries in the source; they are usually repeats but may differ in a detail not shown here. Identical values can stand only once. “Also recorded” adds a separate entry of the source.

Legend:
potato 5-lipoxygenase = test: 5-Lipoxygenase enzyme inhibitory activity; type: biochemical; details: for 5-Lipoxygenase inhibitory activity IC50 values: potato 5-lipoxygenase, linoleic acid substrate
Experimental: 5-Lipoxygenase enzyme inhibitory activity was measured using the method of Schewe et al. (Adv Enzymol, Vol 58: pp 191-272, 1986), modified by Reddanna et. al., (Methods of Enzymology, Vol 187: pp 268-277, 1990). The assay mixture contained 80 μM linoleic acid and sufficient amount of potato 5-lipoxygenase in 50 mM phosphate buffer (pH 6.3). The reaction was initiated by the addition of enzyme buffer mix to linoleic acid and the enzyme activity was monitored as the increase in absorbance at 234 nm. The reaction was monitored for 120 sec and the inhibitory potential of the test substances was measured by incubating various concentrations of test substances two minutes before the addition of linoleic acid. All assays were performed three times. The IC50 values were calculated from the plot drawn of the concentrations of test substances versus percentage inhibition.

[1] = system: adipocyte fatty acid-binding protein (aP2); test: Down-regulation of aP2 protein expression in LPS-induced THP-1 derived macrophages (Western blot); type: cell-based, human; details: 5 μg/ml, 2 h pretreatment, LPS 100 ng/ml 16 h, normalized to actin
Experimental: The inventors also assessed the effect of α-mangostin and γ-mangostin on adipocyte fatty acid-binding protein aP2 expression in human monocytes-macrophage cells in a cell based in vitro model. In this experiment, THP-1 human monocyte-macrophage cells were pre-treated with 5 μg/ml of γ-mangostin or α-mangostin for 2 h and thereafter primed with LPS to induce the inflammatory response. The cellular proteins were extracted by cell lysis buffer and subjected to immuno-western blot to detect the modulation of expression of aP2 protein.
Down-regulation of aP2 protein expression by α-mangostin and γ-mangostin was evaluated in a cell based in vitro model. […] The protein content was measured by Coomassie blue based Bradford method and equal amount of cellular protein lysates (2 μg) was resolved in 15% SDS-Polyacrylamide gels. […] The aP2 protein expression was specifically detected by chemiluminescent substrate (Pierce, USA); detection of chemiluminescent bands and densitometric analyses were carried out on Kodak 4000 mM image station (supplied by Kodak, USA). The same nitrocellulose blots were stripped and re-probed with anti-actin antibody (Sigma Chemical CO, USA) and actin protein expression was recorded as an indication of equal protein loading in each lane. […]

TNF-α = test: Inhibition of LPS-induced TNF-α in THP-1 human monocytes (EIA); type: cell-based; details: THP-1 cells, 2 h pretreatment, 100 ng/ml LPS 4 h
Experimental: Inhibition of Tumor necrosis factor-α (TNF-α) in vitro by α-mangostin and γ-mangostin: The anti-inflammatory activities of α-mangostin, γ-mangostin and composition-I were assessed in a cell based in vitro assay. Briefly, THP-1 human monocytes cells were washed and re-suspended in phenol red free Dulbecco's Modified Eagle's Medium (DMEM) supplemented with 1% fetal Bovine serum (FBS). Equal number of cells was added to each well of a 96-well TC plate and the cells were pretreated for 2 h with various concentrations of test substances (ranging from 0.5 to 50 μg/ml; solutions prepared in culture medium from a stock solution containing 50 mg/l mL DMSO of each test compound) of α-mangostin, γ-mangostin and composition-I. The inflammatory response was induced by treatment with 100 ng/ml of LPS for 4 h at 37° C. in presence of 5% CO2. The vehicle control culture wells received 0.1% DMSO in culture medium. The cell culture supernatants were collected and assessed for secretary pro-inflammatory cytokine, TNFα. The TNF-α concentration was quantitatively measured by highly specific and sensitive Enzyme Immuno Assay (EIA) kit supplied by R&D Systems, USA. The enzyme immuno assay was performed based on the protocol provided by the vendor. The inhibitory concentration for 50% inhibition (IC50) of TNF-α was determined from a plot drawn for ingredient concentration against TNF-α level.

Compound | 5-Lipoxygenase inhibitory activity IC50 values (potato 5-lipoxygenase) [µg/mL] | Inhibition of LPS induced aP2 protein expression [1] | IC50 for TNFα (TNF-α) | Relative potency of O-demethylxanthone versus O-methyl counterpart (potato 5-lipoxygenase; comparison in words)
COc1c(O)cc2oc3cc(O)c(CC=C(C)C)c(O)c3c(=O)c2c1CCC(C)(C)O [Garcinone D] | 5.7 | – | – | –
COc1c(O)cc2oc3cc(O)c(CC=C(C)C)c(O)c3c(=O)c2c1CC=C(C)C [α-mangostin] | – | inhibition of aP2 protein expression | – | –
CC(C)=CCc1c(O)cc2oc3cc(O)c(O)c(CC=C(C)C)c3c(=O)c2c1O [γ-mangostin] | 0.52 | more potent inhibitor of aP2 in vitro compared to α-mangostin; also recorded: inhibited the LPS induced aP2 expression more strongly compared to α-mangostin | 3.32 µg/mL and 3.322 µg/mL | –
Garcinone C | 2.8 | – | – | relatively higher potency compared to its natural O-methyl counterpart, garcinone D
